How the values were obtained:
[1] = target: AChE (Homo sapiens, UniProt P22303); experiment: biochemical; conditions: for Ki: Lineweaver-Burk curves; for Ki / IC50: means of triplicate assays ± SEM; for AChE inhibition type: from Lineweaver-Burk curves; for IC50: 30°C
Method: Reaction mixtures contained the 50 μL of 5,5′-dithio-bis(2-nitro-benzoic)acid compound (DTNB) and 100 μL of Tris–HCl solution (1 M, pH 8.0), and 20 μL AChE solution in total volume of 1 mL. The mixture was then incubated and mixed for 15 min at 30°C. Next, The reaction was started by adding 50 μL of acetylthiocholine iodide, and carried out for 5 min at 30°C. After adding substrate, the change in absorbance at 0 and 5 minutes was recorded at 412 nm.
AChE activities were determined at 30°C by using five concentrations of acetylthiocholine iodide and three concentrations of compounds.

[2] = tested on: S. aureus; experiment: Antimicrobial test, broth microdilution MIC; type: cell-based, Staphylococcus aureus (ATCC 29213); conditions: Staphylococcus aureus, 24 h, read-out: Minimum inhibitory concentration, S. aureus
Method: (§1) This study used standard strains of bacteria known to be resistant to antibiotics. These isolates were identified as three gram-positive bacteria: Bacillus subtilis, Staphylococcus aureus (ATCC 29213) and Enterococcus faecalis (ATCC 29212); and two Gram-negative bacteria: Escherichia coli (ATCC 25922) and Pseudomonas aeruginosa (ATCC 27853). The strains were grown in blood medium one night before the broth microdilution method was used. They were then passaged and stored in tryptic soy broth (TSB) at -20°C for repeat experiments. Bacterial strains were passaged in blood medium and incubated in an oven at 35 ± 2°C for 18–24 hours. At least 3–5 similar colonies were selected from the culture plate. These were picked up with a loop and transferred to 4–5 mL of liquid medium (e.g. tryptic soy broth). The broth was incubated at 35°C until the turbidity reached McFarland 0.5 (approximately 2–6 hours). The density of the culture in the broth was determined by preparing a bacterial solution with a McFarland density of 0.5. The microdilution method was used to determine MIC values. Standards were dissolved in DMSO. Positive controls were prepared with penicillin, fluconazole and gentamicin.
(§2) It was prepared at concentrations of 1, 2, 4, 8, 16, 32, 64, 128, 256 and 512 µg/mL. 1% DMSO was used as a solvent control. Compounds were spiked at initial test control concentrations of 250 µg/mL in MHB. MHB was added to all wells except the first well. 100 µl of compounds were added to the first well. Serial dilutions were then made and diluted to the minimum concentration (1 µg/ml). Then 0.5 McFarland was prepared from bacteria incubated in MHB for 1 night. Then 50 µl of bacterial suspension was added to each well. The plates were incubated at 37°C for 24 hours. The microplates were then read in the spectrophotometer at a wavelength of 620 nm.
(§3) 100 µl of MHB was added to each well of a 12-well U-bottom microplate. 100 μL of the previously prepared NHC precursor drug was taken and transferred to the first well, and 100 μL was taken again by pipetting and transferred to the second well. In this way, dilutions were made sequentially up to the 11th well. No NHC precursor was added to the 12th well, which was used as a positive control. Then 100 μL of the prepared 5 x 10^5 CFU/mL bacterial suspension was taken and added to all wells without adding to the 11th well. The 11th well was used as a negative control ([Demirhan et al., 2024]). The same study was performed for all NHC precursors. The microplates were then incubated at 35°C for 24 hours. The lowest concentration at which no growth occurred for all strains was determined as the MIC.

[3] = tested on: E. faecalis; experiment: Antimicrobial test, broth microdilution MIC; type: cell-based, Enterococcus faecalis (ATCC 29212); conditions: Enterococcus faecalis, 24 hours, read-out: Minimum inhibitory concentration, E. faecalis
Method: as §1, §2, §3

[4] = tested on: E. coli; experiment: Antimicrobial test, broth microdilution MIC; type: cell-based, Escherichia coli (ATCC 25922); conditions: Escherichia coli, 24 hours, read-out: Minimum inhibitory concentration, E. coli
Method: as §1, §2, §3

[5] = tested on: P. aeruginosa; experiment: Antimicrobial test, broth microdilution MIC; type: cell-based, Pseudomonas aeruginosa (ATCC 27853); conditions: Pseudomonas aeruginosa, 24 hours, read-out: Minimum inhibitory concentration, P. aeruginosa
Method: as §1, §2, §3

Chain of AChE (P22303 32-614): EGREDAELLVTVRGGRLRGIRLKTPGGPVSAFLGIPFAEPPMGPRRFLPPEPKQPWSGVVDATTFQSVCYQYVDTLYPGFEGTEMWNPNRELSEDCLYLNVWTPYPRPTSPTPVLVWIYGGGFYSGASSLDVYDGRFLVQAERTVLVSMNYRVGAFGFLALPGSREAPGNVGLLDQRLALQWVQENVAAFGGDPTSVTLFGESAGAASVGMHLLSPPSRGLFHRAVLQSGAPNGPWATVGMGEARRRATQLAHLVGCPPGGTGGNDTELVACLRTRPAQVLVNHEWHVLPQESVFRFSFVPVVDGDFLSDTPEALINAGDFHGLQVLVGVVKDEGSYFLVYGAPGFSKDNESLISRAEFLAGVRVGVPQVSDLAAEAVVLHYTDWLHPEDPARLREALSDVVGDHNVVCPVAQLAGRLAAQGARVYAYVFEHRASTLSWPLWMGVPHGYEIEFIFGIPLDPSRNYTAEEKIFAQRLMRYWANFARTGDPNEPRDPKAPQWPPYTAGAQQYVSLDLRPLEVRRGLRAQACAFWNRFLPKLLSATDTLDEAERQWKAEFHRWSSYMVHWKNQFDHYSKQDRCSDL

| SMILES | Ki [1] | AChE inhibition type [1] | IC50 [1] | MIC [2] | MIC [3] | MIC [4] | MIC [5] |
| --- | --- | --- | --- | --- | --- | --- | --- |
| CC(=O)c1ccc(-n2cc[n+](CCN3CCOCC3)c2)cc1.Cl.[Cl-] [Compound 1a, 1-(4-acetylphenyl)-3-(2-morpholino)ethylimidazolium chloride hydrochloride] | 11200 ± 1050 nM | Uncompetitive | 14800 ± 820 nM | 25 µg/mL | 50 µg/mL | 200 µg/mL | 200 µg/mL |
| Cl.O=Cc1ccc(-n2cc[n+](CCN3CCCCC3)c2)cc1.[Cl-] [Compound 2b, 1-(4-formylphenyl)-3-(2-piperidino)ethylimidazolium chloride hydrochloride] | 780 ± 50 nM | Uncompetitive | 1020 ± 80 nM | 250 µg/mL | 50 µg/mL | 100 µg/mL | 200 µg/mL |
| Cl.O=Cc1ccc(-n2cc[n+](CCN3CCOCC3)c2)cc1.[Cl-] [Compound 2a, 1-(4-formylphenyl)-3-(2-morpholino)ethylimidazolium chloride hydrochloride] | 660 ± 30 nM | Uncompetitive | 870 ± 60 nM | 250 µg/mL | 250 µg/mL | 200 µg/mL | 200 µg/mL |
| Cl.O=Cc1ccc(-n2cc[n+](CCN3CCCC3)c2)cc1.[Cl-] [Compound 2c, 1-(4-formylphenyl)-3-(2-pyrrolidino)ethylimidazolium chloride hydrochloride] | 3160 ± 240 nM | Uncompetitive | 4130 ± 250 nM | 100 µg/mL | 50 µg/mL | 200 µg/mL | 200 µg/mL |
| CC(=O)c1ccc(-n2cc[n+](CCN3CCCCC3)c2)cc1.Cl.[Cl-] [Compound 1b, 1-(4-acetylphenyl)-3-(2-piperidino)ethylimidazolium chloride hydrochloride] | 1690 ± 80 nM | Uncompetitive | 2210 ± 160 nM | 12.5 µg/mL | 50 µg/mL | 200 µg/mL | 200 µg/mL |
| Br.CC(=O)c1ccc(-n2cc[n+](Cc3ccccn3)c2)cc1.[Br-] [Compound 1d, 1-(4-acetylphenyl)-3-(pyridin-2-yl)methylimidazolium bromide hydrobromide] | 800 ± 60 nM | Uncompetitive | 1050 ± 70 nM | 50 µg/mL | 10 µg/mL | 50 µg/mL | 200 µg/mL |
| CC(=O)c1ccc(-n2cc[n+](CCN3CCCC3)c2)cc1.Cl.[Cl-] [Compound 1c, 1-(4-acetylphenyl)-3-(2-pyrrolidino)ethylimidazolium chloride hydrochloride] | 8050 ± 720 nM | Uncompetitive | 10500 ± 1080 nM | 25 µg/mL | 50 µg/mL | 50 µg/mL | 25 µg/mL |
| Br.O=Cc1ccc(-n2cc[n+](Cc3ccccn3)c2)cc1.[Br-] [Compound 2d, 1-(4-formylphenyl)-3-(pyridin-2-yl)methylimidazolium bromide hydrobromide] | 630 ± 40 nM | Uncompetitive | 820 ± 60 nM | 250 µg/mL | 100 µg/mL | 200 µg/mL | 200 µg/mL |

Reference: publication PMC12313567 (Frontiers in Cellular and Infection Microbiology, 2025)
